US10428043B2, “Green oxidation catalytic system” (TRUSTEES OF BOSTON UNIVERSITY, priority 2014, dated 2019)
Several values for one entry are separate records, joined by “and”; a condition that tells them apart may be missing. Equal values may be shown once. Read-outs that look alike come from different tables or passages of the source.

How the values were obtained:
[1] = Reactivity with α-KG, O2 and 2,4-di-tert-butyl phenol (GC-FID); conditions: O2, [Fe] 9.6 μM
Description: (§1) Reactivity Studies. […] (10-20 mM).

[2] = Catalytic oxidation of methanol to formaldehyde with α-KG and O2 (Nash assay); conditions: for Total TON / TON: Methanol; for TON: product Formaldehyde
[3] = Reactivity with α-KG, O2 and cyclohexene (GC); conditions: Cyclohexene
[4] = Low-temperature stopped-flow kinetics of binding of p-CH3-BF to 17; conditions: 17 + p-CH3-BF
[5] = Reactivity with α-KG, O2 and 9,10-dihydroanthracene (GC-FID); conditions: O2, [Fe] 10.1 μM
Description: as §1
(17) with α-KG, 02, and 9,10-dihydroanthracene.

[6] = Reactivity with α-KG, O2 and cyclooctane (GC-MS); conditions: Cyclooctane
Description: as §1

[7] = Room temperature O2 reactivity of ferrous complexes followed by UV/vis
Description: The solution was transferred to an anaerobic UV/vis cell and sealed. An initial spectrum was obtained of the ferrous complex, and then the solution was exposed to the air. Spectra were recorded every minute for the first two minutes and then every 5-30 minutes after that for seven hours. The absorbance was monitored at 350 nm to follow formation of the oxidized complex.
This solution was then transferred to an anaerobic UV/vis cell and sealed. An initial spectrum was obtained of the ferrous complex, and then the solution was exposed to the air. Spectra were collected every minute for the first 30 minutes and then every 5-20 minutes after that for 2 hours. The absorbance was monitored at 315 nm to follow formation of the oxidized complex.

[8] = cited from earlier work
[9] = Low-temperature stopped-flow kinetics of binding of α-KG to 17; conditions: 17 + α-KG
[10] = Cyclic voltammetry, redox potentials; format: physicochemical
Source text: All reagents and solvents used were purchased from commercial sources and used as received unless otherwise noted. Prior to use, methanol (Pharmco-Aaper) was distilled over magnesium metal, dimethyl sulfoxide (Fisher Scientific) was distilled over calcium hydride, triethylamine was distilled over sodium metal and unstabilized dichloromethane (Fisher Scientific) was distilled over calcium hydride. Ferrocene was purified by sublimation for use as a reference for electrochemical analyses. All manipulations involving ferrous complexes were carried out in an inert atmosphere glovebox (M. Braun, Stratham, N.H.) with distilled and thoroughly degassed solvents. UV/Vis spectra were collected using a Hewlett Packard Spectrometer (8453). IR spectra were collected using a Thermo Nicolet AVATAR 330-FT-IR. Cyclic voltammetry experiments were performed using a Princeton Applied Research model 273 potentiostat with a glassy carbon working electrode, a silver wire reference electrode and a platinum wire counter electrode. Electron Paramagnetic Resonance (EPR) spectra were collected on a Bruker ESP-300E spectrometer operating at 9.460 GHz. NMR spectra were recorded at 25° C. using a Varian spectrometer operating at 400 MHz with all chemical shifts referenced to SiMe4. Iron concentrations were determined using a Varian AA240Z Atomic Absorption Spectrometer.
Cyclic voltammetry was performed inside an inert atmosphere (N2) box, with degassed DMSO as the solvent and tetra-N-butylammonium hexafluorophosphate as the supporting electrolyte (0.2M). The ferrocenium/ferrocene couple was used as an internal reference; reduction potential values were corrected by assigning the ferrocenium/ferrocene couple to 0.64 V versus NHE (Zanello, P. Inorganic Electrochemistry; The Royal Society of Chemistry: Cambridge, 2003). Chloride titration experiments were performed by collecting CV data after the addition of one and two 50 μL aliquots of 204 mM [NEt4][Cl] to 3.0 mL of 3.4 mM [Fe^II(N2O1py)(Cl)2]^− (concentration determined using flame atomic absorption spectroscopy) and correcting the potential with reference to the ferrocenium/ferrocene couple.
It should be noted that these redox potentials were determined in the absence of excess halide, and further CV studies will be performed in the presence of excess halide for all derivatives of the N2O1py system.

[11] = vs. NHE, quasi-reversible; Thesis of Tarves 2012; cited from earlier work
[12] = Low-temperature stopped-flow kinetics of adduct complexes with dioxygen; conditions: −85° C.
Description: Stopped-flow Spectroscopy and Data analysis.
Kinetic studies of [Fe^II(N2O1)(α-KG)(CH3OH)]^− and [Fe^II(N2O1)(p-X-BF)(CH3OH)]^− adduct complexes with dioxygen. Low-temperature stopped flow studies of this reaction were performed.
Order dependence analysis.
The kinetic model was built by starting from simple two- and three-exponential processes.
Stoichiometry of the equations for the proposed model in FIG. 29: […]

[13] = calculated from redox potentials for the one-electron transfer between iron and dioxygen
[14] = [24] 1.0 mM, O2 5 mM, benzoate 3.1 mM
[15] = complex 0.94-1.1 mM, O2 5 mM, methanol

CN(C)CCN(C)CC(=O)[O-].[Cl-].[Cl-].[Fe+2].[Na+] [compound 17, [Fe^II(N2O1)Cl2][Na]]
Total TON [1]: 619
TON ([1]; product 3,3′-5,5′-terta-t-butyl-2,2′-dihydroxybiphenyl): 619
Total TON ([2]; O2, [Fe] 1.0 μM): 285
TON ([2]; O2, [Fe] 1.0 μM): 285
Total TON ([2]; O2, [Fe] 6.2 μM): 54
TON ([2]; O2, [Fe] 6.2 μM): 54
Total TON ([2]; O2, [Fe] 8.0 μM): 36
TON ([2]; O2, [Fe] 8.0 μM): 36
Total TON ([2]; O2, [Fe] 12.5 μM): 22
TON ([2]; O2, [Fe] 12.5 μM): 22
Total TON ([2]; O2, [Fe] 100 μM): 3.5
TON ([2]; O2, [Fe] 100 μM): 3.5
Total TON ([2]; O2, [Fe] 200 μM): 2.1
TON ([2]; O2, [Fe] 200 μM): 2.1
Total TON ([2]; O2, [Fe] 300 μM): 1.3
TON ([2]; O2, [Fe] 300 μM): 1.3
Total TON ([2]; O2, [Fe] 500 μM): 0.82
TON ([2]; O2, [Fe] 500 μM): 0.82
Total TON ([2]; O2, [Fe] 2500 μM): 0.46
TON ([2]; O2, [Fe] 2500 μM): 0.46
Total TON ([2]; O2, [Fe] 5000 μM): 0.39
TON ([2]; O2, [Fe] 5000 μM): 0.39
Total TON ([3]; O2, [Fe] 9.6 μM): 520
Total TON ([3]; O2, [Fe] 9.6 μM + TEMPO): 414
TON ([3]; O2, [Fe] 9.6 μM + TEMPO (6 × 10^4 excess), product Cyclohexene oxide): 53
TON ([3]; O2, [Fe] 9.6 μM + TEMPO, product 2-Cyclohexen-1-ol): 240
TON ([3]; O2, [Fe] 9.6 μM + TEMPO, product 2-Cyclohexen-1-one): 60
TON ([3]; O2, [Fe] 9.6 μM, product 2-Cyclohexen-1-ol): 249
TON ([3]; O2, [Fe] 9.6 μM, product 2-Cyclohexen-1-one): 70
TON ([3]; O2, [Fe] 9.6 μM, product Cyclohexene oxide): 132
k15 ([4]; methanol, −85° C.): 45.3 M⁻¹ s⁻¹ and 45 ± 5 M⁻¹ s⁻¹
k16 ([4]; methanol, −85° C.): 12 ± 1 s⁻¹
k17 ([4]; methanol, −85° C.): 1.2 ± 0.1 s⁻¹
ΔH^‡ of k15 ([4]; −85 to −70° C.): 8.37 ± 0.48 kcal/mol
ΔH^‡ of k16 ([4]; −85 to −70° C.): 10 ± 2.2 kcal/mol
ΔH^‡ of k17 ([4]; −85 to −70° C.): 9.08 ± 0.24 kcal/mol
ΔS^‡ of k16 ([4]; −85 to −70° C.): 1.5 ± 0.9 J mol^−1 K^−1
ΔS^‡ of k17 ([4]; −85 to −70° C.): 36.9±15 J mol^−1 K^−1 and 37 ± 15 J mol^−1 K^−1
Total TON [5]: 128
TON ([5]; product Anthracene): 54
TON ([5]; product Anthraquinone): 26
TON ([5]; product Anthrone): 21
Total TON ([6]; Air, [Fe] 1.1 μM): 317
TON ([6]; Air, [Fe] 1.1 μM, product Cyclooctanol): 189
TON ([6]; Air, [Fe] 1.1 μM, product Cyclooctanone): 64
Total TON ([6]; O2, [Fe] 1.1 μM): 305
TON ([6]; O2, [Fe] 1.1 μM, product Cyclooctanol): 182
TON ([6]; O2, [Fe] 1.1 μM, product Cyclooctanone): 62
Total TON ([6]; O2, [Fe] 9.7 μM): 40
TON ([6]; O2, [Fe] 9.7 μM, product Cyclooctanol): 24
TON ([6]; O2, [Fe] 9.7 μM, product Cyclooctanone): 7.8
time for formation of the diferric oxo-bridged product on reaction with O2 ([7]; methanol): ~6 h
solubility ([8]; DMF and DMSO): only slightly soluble
solubility ([8]; other common polar and nonpolar aprotic solvents, including CH3CN, CH2Cl2, THF, Et2O, toluene and ethyl acetate): insoluble
solubility ([8]; protic solvents): soluble
k15 ([9]; methanol, −85° C.): 9.6 M⁻¹ s⁻¹ and 10 ± 0.2 M⁻¹ s⁻¹
k16 ([9]; methanol, −85° C.): 1.7 s⁻¹ and 1.7 ± 0.5 s⁻¹
k17 ([9]; methanol, −85° C.): 0.53 s⁻¹ and 0.5 ± 0.1 s⁻¹
ΔH^‡ of k15 ([9]; −85 to −70° C.): 8.6 ± 0.48 kcal/mol
ΔH^‡ of k16 ([9]; −85 to −70° C.): 12 ± 1.2 kcal/mol
ΔH^‡ of k17 ([9]; −85 to −70° C.): 11.2 ± 1.4 kcal/mol
ΔS^‡ of k16 ([9]; −85 to −70° C.): 31.3±23 J mol^−1 K^−1 and 31 ± 23 J mol^−1 K^−1
ΔS^‡ of k17 ([9]; −85 to −70° C.): 3 ± 1 J mol^−1 K^−1
E1/2 ([10]; DMSO, glassy carbon working electrode, absence of excess halide): 159 mV
Keq [10, 13]: 1.1 × 10^−8
ΔG° [10, 13]: 45 kJ
E1/2 ([10]; no added halide, in mV): +159

CN(C)CCN(C)CC(=O)[O-].CO.O=C([O-])C(=O)c1ccccc1.[Fe+2] [compound 24, [Fe^II(N2O1)(p-H-BF)]]
TON predicted from the line of best fit in FIG. 2 for the α-KG adduct complex ([2]; iron complex 0.47 mM): 0.9
TON predicted from the line of best fit in FIG. 2 for the α-KG adduct complex ([2]; iron complex 0.94 mM): 0.6
TON predicted from the line of best fit in FIG. 2 for the α-KG adduct complex ([2]; iron complex 1.34 mM): 0.3
E1/2 [11]: 60 mV
k′1 ([12]; [24] 0.47 mM, O2 5 mM): 8.5 ± 0.2 s⁻¹
k′2 ([12]; [24] 0.47 mM, O2 5 mM): 170 ± 8 M⁻¹ s⁻¹
k′2obs ([12]; [24] 0.47 mM, O2 5 mM): 0.9 ± 0.04 s⁻¹
k′3 ([12]; [24] 0.47 mM, O2 5 mM): 21 ± 0.06 s⁻¹
k′4 ([12]; [24] 0.47 mM, O2 5 mM): 0.2 ± 0.01 s⁻¹
k′2obs ([12]; [24] 0.94 mM, O2 5 mM): 0.13 ± 0.02 s⁻¹
k′1 [12, 14]: 0.04 ± 0.01 s⁻¹
k′2 [12, 14]: 2900 ± 500 M⁻¹ s⁻¹
k′3 [12, 14]: 0.25 ± 0.05 s⁻¹
k′4obs [12, 14]: 1.1 ± 0.2 s⁻¹
k′1 ([12]; [24] 1.34 mM, O2 2.5 mM): 7 ± 1.2 s⁻¹
k′2obs ([12]; [24] 1.34 mM, O2 2.5 mM): 0.2 ± 0.1 s⁻¹
k′3 ([12]; [24] 1.34 mM, O2 2.5 mM): 14 ± 6 s⁻¹
k′4 ([12]; [24] 1.34 mM, O2 2.5 mM): 0.2 ± 0.03 s⁻¹
k′1 ([12]; [24] 1.34 mM, O2 3.5 mM): 9 ± 1.1 s⁻¹
k′2obs ([12]; [24] 1.34 mM, O2 3.5 mM): 0.5 ± 0.2 s⁻¹
k′3 ([12]; [24] 1.34 mM, O2 3.5 mM): 16 ± 4 s⁻¹
k′4 ([12]; [24] 1.34 mM, O2 3.5 mM): 0.3 ± 0.09 s⁻¹
k′1 ([12]; [24] 1.34 mM, O2 5 mM): 6.1 ± 0.9 s⁻¹ and 8 ± 0.9 s⁻¹
k′2 ([12]; [24] 1.34 mM, O2 5 mM): 150 ± 5 M⁻¹ s⁻¹
k′3 ([12]; [24] 1.34 mM, O2 5 mM): 20 ± 1.1 s⁻¹ and 21 ± 5 s⁻¹
k′1 [12, 15]: 7.8 ± 1.0 s⁻¹
k′3 [12, 15]: 20 ± 0.9 s⁻¹
k′4 (k′4obs) [12, 15]: 0.4 ± 0.03 s⁻¹
rate of room temperature reactivity with O2 (time) [7]: ~200 min
